Paper PMC6199492, “Comprehensive Characterization of Toxoplasma Acyl Coenzyme A-Binding Protein TgACBP2 and Its Critical Role in Parasite Cardiolipin Metabolism” (mBio, 2018)
pKd: −log10 of the molar value.

Target: T1, TgACBP2 (Toxoplasma gondii, UniProt A0A7J6JZP9)
T1 construct: gene TGRH88_042420; recombinant TgACBP2 with C-terminal GST tag (tag kept), expressed in E. coli and purified; native HA-tagged protein ~36 kDa
T1 sequence (A0A7J6JZP9 1-311): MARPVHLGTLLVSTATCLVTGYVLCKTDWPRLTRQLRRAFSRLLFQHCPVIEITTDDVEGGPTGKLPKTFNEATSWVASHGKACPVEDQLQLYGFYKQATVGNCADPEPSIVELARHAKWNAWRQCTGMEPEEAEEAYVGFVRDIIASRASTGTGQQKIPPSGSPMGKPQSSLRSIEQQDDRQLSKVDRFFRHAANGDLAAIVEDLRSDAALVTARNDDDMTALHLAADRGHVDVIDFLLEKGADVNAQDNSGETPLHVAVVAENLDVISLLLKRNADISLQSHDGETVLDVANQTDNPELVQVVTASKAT
Test: fluorescence increase of NBD ligand upon binding, microplate reader
Settings: labelled compound; 0.1 μM TgACBP2-GST, 0-0.25 μM ligand, PBS, room temperature, 5 min; ex 460 nm, em 540 nm; read-out: K (binding constant)

NBD-C16:0-CoA gave a pKd of 6.87.
